Article PMC7436000, “The Spectrum of Design Solutions for Improving the Activity-Selectivity Product of Peptide Antibiotics against Multidrug-Resistant Bacteria and Prostate Cancer PC-3 Cells” (Molecules, 2020)
Values after ≈ are worked out from the molar mass of the structure shown. Peptide text beside a SMILES is read from it.

Legend:
[1] = tested on: Acinetobacter baumannii (ATCC 19606); assay type: cell-based; conditions: ATCC 19606
Excerpt: (§1) The American Type Culture Collection (ATCC, Rockville, MD, USA) strains and Escherichia coli MG1655 were used as standard bacterial strains. Gram-negative ATCC strains consisted of Escherichia coli (ATCC 25922), Pseudomonas aeruginosa (ATCC 27853), Acinetobacter baumannii (ATCC 19606), and Klebsiella pneumoniae (ATCC 13883). The only Gram-positive standard strain chosen for testing was Staphylococcus aureus (ATCC 29213). Clinical isolates with confirmed multidrug-resistance phenotype were obtained from different wards of the University Hospital Center, Split, Croatia. We described their origin, antibiograms, and resistance phenotype previously. In the same paper, we described the procedure for antimicrobial susceptibility testing on planktonic cells, using the microdilution method in 96-well microtiter plates.
(§2) Briefly, cells were grown on agar plates and a single colony was sampled to generate a liquid culture (LC) grown overnight at 37 °C. The culture was sampled, resuspended in fresh medium, and allowed to grow at 37 °C, until reaching the mid-exponential phase. Lysogeny broth (LB) was used in the case of the E. coli MG1655 cells. Mueller Hinton (MH) medium was used for all other bacterial strains. Serial 2-fold dilutions of the peptide (64 μM to 0.0625 μM) were prepared from peptide stock solution in PBS, and added to a final load of 5 × 10^5 CFU/mL in 100 μL total volume of medium per well in a 96-well plate (Brand 781660). Bacterial cultures were incubated with peptides for 18 h to 24 h at 37 °C. The minimum inhibitory concentration (MIC) was defined as the lowest concentration of the peptide, at which no visible bacterial growth was observed. The MIC for each of the tested peptides was determined in at least three individual assays under the same laboratory conditions. […] At the end of the incubation period for MIC or MBC, the determination of the OD600 was analyzed.

[2] = tested on: Staphylococcus aureus (ATCC 29213); assay type: cell-based; conditions: for PEa(20) = SI/MIC(aureus): ATCC 29213, 18 h
Excerpt: as §1, §2

[3] = tested on: Pseudomonas aeruginosa (ATCC 27853); assay type: cell-based; conditions: ATCC 27853
Excerpt: as §1, §2

[4] = tested on: Escherichia coli (ATCC 25922); assay type: cell-based; conditions: ATCC 25922
Excerpt: as §1, §2

Escherichia coli MG1655 = assay type: cell-based; conditions: MG1655
Excerpt: as §1, §2

[5] = tested on: Klebsiella pneumoniae (ATCC 13883); assay type: cell-based; conditions: ATCC 13883
Excerpt: as §1, §2

A. baum. clin. isolate = assay type: cell-based, Acinetobacter baumannii
Excerpt: as §1, §2

human erythrocytes = experiment: Hemolysis of human erythrocytes; assay type: cell-based; conditions: for HC10: concentration causing 10% hemolysis, 0.2% Triton = 100%; for HC10 / HC20 / HC50: 0.5% RBC in PBS, 1 h, 37 °C, absorbance 450 nm, triplicate; for HC20: concentration causing 20% hemolysis; for HC50: concentration causing 50% hemolysis
Method: Fresh blood was obtained from a healthy donor. Blood was stored in a tube containing EDTA at 4 °C and used within 24 h. Before use, 1 mL of blood was centrifuged (400× g, 10 min), and the supernatant was discarded. Moreover, 500 μL cold PBS with EDTA (1 mM) was added, mixed and centrifuged. The supernatant was discarded. Furthermore, 500 μL of cold PBS with EDTA (1 mM) was added, from which a dilution of 1% blood was made. Peptides were prepared in PBS at a 2 × concentration in 100 µL. […] The suspension was incubated at 37 °C for 1 h and centrifuged at 10,000× g for 5 min. […] After centrifugation, the supernatant was added to a 96-well microtiter plate (150–180 μL), and the absorbance was measured at 450 nm, using EnSight Multimode Plate Reader (PerkinElmer, Inc.). Each measurement was done in triplicate. […] We opted to also include the extrapolated HC50 in our results, to permit comparisons with older toxicity results. However, the HC20 measurements were used for ranking the peptides according to their selectivity and overall performance (Figure 1 and Figure 2 and Table 2).

P. aerug. clin. isolate = assay type: cell-based, Pseudomonas aeruginosa
Excerpt: as §1, §2

S. aureus clin. isolate = assay type: cell-based, Staphylococcus aureus; conditions: clin. isolate
Excerpt: as §1, §2

[6] = tested on: PC-3 prostate cancer cell line; assay type: cell-based, human; conditions: 24 h
Method: (§3) Prostate cancer cells were donated by the University of Split, School of Medicine. Cells were cultured in RMPI-1640 medium, supplemented with 10% FBS, 1% Penicillin-Streptomycin, and 1% L-Glutamine. Human dermal fibroblasts were purchased from Biopredic (France) and cultured in DMEM medium, supplemented with 10% FBS and 1% Penicillin-Streptomycin. All cell lines were maintained in a humidified incubator with 5% CO2 at 37 °C. Cells were detached using the trypsin-EDTA solution and sub-cultured (7000 cells/well) in a 96-well plate overnight. Peptide stock solutions were prepared in PBS, and cancer cells were treated with 2-fold serial dilutions for 24 h at 37 °C, with 5% CO2. The toxicity of 6 selected peptides was assessed by a standard MTT assay. Treated cells were incubated with MTT working solution (0.5 mg/mL Thiazolyl Blue Tetrazolium Bromide) for 4 h at 37 °C with 5% CO2. Precipitated formazan was dissolved in 200 µL DMSO and absorbance was measured at 595 nm with EnSight Multimode Plate Reader (PerkinElmer, Inc.)

[7] = tested on: human primary dermal fibroblasts; assay type: cell-based; conditions: 24 h
Method: as §3

E. coli clin. isolate = assay type: cell-based, Escherichia coli; conditions: clin. isolate
Excerpt: as §1, §2

K. pneum. clin. isolate = assay type: cell-based, Klebsiella pneumoniae
Excerpt: as §1, §2

| Structure (SMILES) | MIC (A. baum. ATCC 19606) [1] | MIC (S. aureus ATCC 29213) [2] | PEa(20) = SI/MIC(aureus) [2] | MIC (P. aerug. ATCC 27853) [3] | MIC (E. coli ATCC 25922) [4] | MIC (E. coli MG1655) (Escherichia coli MG1655) | MIC (K. pneum. ATCC 13883) [5] | MIC (A. baum. clin. isolate) (A. baum. clin. isolate) | HC10 (human erythrocytes) | HC20 (human erythrocytes) | HC50 (human erythrocytes) | MIC (P. aerug. clin. isolate) (P. aerug. clin. isolate) | MIC (S. aureus clin. isolate) (S. aureus clin. isolate) | (TI/ IC50C) vs. MP1 [6] | TI (HC20/IC20C) [6] | TI (IC50F/IC50C) [6] | TI/ IC50C [6] | IC50 [7] | MIC (E. coli clin. isolate) (E. coli clin. isolate) | MIC (K. pneum. clin. isolate) (K. pneum. clin. isolate) | further results |
| --- | --- | --- | --- | --- | --- | --- | --- | --- | --- | --- | --- | --- | --- | --- | --- | --- | --- | --- | --- | --- | --- |
| CC[C@H](C)[C@H](NC(=O)[C@H](CCCNC(=N)N)NC(=O)[C@H](C)NC(=O)[C@H](Cc1ccc(O)cc1)NC(=O)[C@H](CCCNC(=N)N)NC(=O)[C@H](CCCNC(=N)N)NC(=O)[C@H](Cc1c[nH]c2ccccc12)NC(=O)[C@H](Cc1c[nH]cn1)NC(=O)[C@@H](N)Cc1c[nH]cn1)C(=O)NCC(=O)N[C@@H](Cc1ccccc1)C(=O)N[C@@H](CCCNC(=N)N)C(=O)N[C@@H](C)C(=O)N[C@H](C(=O)N[C@@H](CCCNC(=N)N)C(=O)N[C@H](C(=O)N[C@H](C(=O)N[C@H](C(=O)NCC(=O)N[C@@H](CCCCN)C(N)=O)[C@@H](C)CC)C(C)C)[C@@H](C)O)C(C)C [T2] (H-HHWRRYARIGFRAVRTVIGK-NH2) | 1 µM (≈ 2.48 µg/mL) | 1 µM (≈ 2.48 µg/mL) | 3 µM⁻¹ | 4 µM (≈ 9.92 µg/mL) | 0.5 to 1 µM | >32 µM | 4 µM (≈ 9.92 µg/mL) | 8 µM (≈ 19.8 µg/mL) | 1.4 µM | 3 µM | 28 µM | 32 µM (≈ 79.3 µg/mL) | 4 µM (≈ 9.92 µg/mL) | 8.4 | 1 | 3.5 | 0.35 | 35 µM | 8 µM (≈ 19.8 µg/mL) | 8 µM (≈ 19.8 µg/mL) | IC50 [6]: 10 µM |
| CC[C@H](C)[C@H](NC(=O)[C@H](CCCCN)NC(=O)[C@H](CC(C)C)NC(=O)[C@H](C)NC(=O)[C@H](CCCCN)NC(=O)[C@H](CC(C)C)NC(=O)[C@H](C)NC(=O)[C@@H](NC(=O)[C@H](CCCCN)NC(=O)[C@H](C)NC(=O)[C@@H](NC(=O)[C@@H](N)CCCCN)[C@@H](C)CC)C(C)C)C(=O)N[C@@H](C)C(=O)N[C@@H](CCCCN)C(=O)NCC(=O)N[C@@H](C)C(=O)N[C@@H](CC(C)C)C(=O)N[C@@H](CCCCN)C(=O)N[C@@H](C)C(=O)N[C@@H](CC(C)C)C(N)=O [KIA1] (H-KIAKVALKALKIAKGALKAL-NH2) | 1.5 µM (≈ 3.07 µg/mL) | 1 µM (≈ 2.05 µg/mL) |  | 6 µM (≈ 12.3 µg/mL) | 0.75 µM (≈ 1.54 µg/mL) | 8 µM (≈ 16.4 µg/mL) | 3 µM (≈ 6.14 µg/mL) | 1.5 µM (≈ 3.07 µg/mL) | 3 µM | 6 µM | 20 µM | 3 µM (≈ 6.14 µg/mL) | 3 µM (≈ 6.14 µg/mL) | 1.6 | 1 | 1 | 0.07 | 15 µM | 12 µM (≈ 24.6 µg/mL) | 12 µM (≈ 24.6 µg/mL) |  |
| CC[C@H](C)[C@H](NC(=O)CN)C(=O)N[C@@H](CCCCN)C(=O)N[C@@H](CCCCN)C(=O)N[C@@H](C)C(=O)N[C@H](C(=O)NCC(=O)N[C@@H](CCCCN)C(=O)N[C@@H](C)C(=O)N[C@@H](CC(C)C)C(=O)N[C@@H](CCCCN)C(=O)NCC(=O)N[C@@H](CC(C)C)C(=O)N[C@@H](CCCCN)C(=O)NCC(=O)N[C@@H](CC(C)C)C(=O)N[C@@H](CC(C)C)C(=O)N[C@@H](CCCCN)C(=O)N[C@@H](C)C(=O)N[C@@H](CC(C)C)C(=O)NCC(=O)N[C@@H](CCC(=O)O)C(=O)N[C@@H](CO)C(N)=O)C(C)C [A1A] (H-GIKKAVGKALKGLKGLLKALGES-NH2) | 2 µM (≈ 4.56 µg/mL) | 1 µM (≈ 2.28 µg/mL) | 80 µM⁻¹ | 64 µM (≈ 146 µg/mL) | 1 µM (≈ 2.28 µg/mL) | 2 µM (≈ 4.56 µg/mL) | 4 µM (≈ 9.12 µg/mL) | 4 to 8 µM | 25 µM | 80 µM |  | >64 µM | 4 µM (≈ 9.12 µg/mL) | 5 | 27 | 2.5 | 0.21 | 30 µM | 32 µM (≈ 72.9 µg/mL) | 8 µM (≈ 18.2 µg/mL) | HC50 * (extrapolated) (human erythrocytes; extrapolated, all concentrations tested lysed less than 50% of cells): 125 * µM; IC50 [6]: 12 µM |
| CC[C@H](C)[C@H](NC(=O)[C@@H](NC(=O)[C@H](CCCNC(=N)N)NC(=O)CNC(=O)[C@@H](NC(=O)[C@H](CCCCN)NC(=O)[C@H](CCCCN)NC(=O)CNC(=O)[C@@H](NC(=O)[C@H](CCCCN)NC(=O)[C@H](CCCCN)NC(=O)[C@@H](NC(=O)[C@@H](NC(=O)[C@H](CCCCN)NC(=O)[C@H](CCCCN)NC(=O)[C@@H](NC(=O)[C@@H](NC(=O)[C@H](CCC(=O)O)NC(=O)[C@H](CCCNC(=N)N)NC(=O)CNC(=O)[C@@H](NC(=O)CN)[C@@H](C)CC)[C@@H](C)CC)[C@@H](C)CC)[C@@H](C)CC)[C@@H](C)CC)[C@@H](C)CC)[C@@H](C)CC)[C@@H](C)CC)C(N)=O [ZYK1] (H-GIGREIIKKIIKKIGKKIGRII-NH2) | 2 µM (≈ 4.95 µg/mL) | 1 µM (≈ 2.47 µg/mL) | 8 µM⁻¹ | 16 µM (≈ 39.6 µg/mL) | 1 µM (≈ 2.47 µg/mL) | 4 µM (≈ 9.9 µg/mL) | 2 µM (≈ 4.95 µg/mL) | 2 µM (≈ 4.95 µg/mL) | 3 µM | 8 µM | 29 µM | 16 µM (≈ 39.6 µg/mL) | 2 µM (≈ 4.95 µg/mL) | 107 | 8.6 | 6.7 | 4.47 | 10 µM | 2 µM (≈ 4.95 µg/mL) | 4 µM (≈ 9.9 µg/mL) | IC50 [6]: 1.5 µM |
